In patent publication US20060069132A1, “Azolecarboxamide herbicides” (priority 2004, published 2006):

Key:
[1] = tested on: wild oat; test: Test B postemergence herbicide test; type: in vivo, Avena fatua; settings: postemergence, visual rating, scale 0 (no effect) to 100 (complete control)
Summary of the method: (§1)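 Formulated test chemicals went onto postemergence plants measuring 2 to 18 cm, at one to four leaves. For the paddy assay, species had reached two leaves. Scoring took place 13–15 days later by eye, relative to untreated plants, using 0 for no effect up to 100 for full control.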

[2] = tested on: barnyardgrass; test: Test C flooded paddy test; type: in vivo, Echinochloa crus-galli
Summary of the method: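 Greenhouse test with a 12–14 day hold after application and visual comparison with controls. Emerged plants were 1- to 4-leaf stage (2–18 cm) when sprayed postemergence, and the paddy barnyardgrass was at 2 leaves under flooded conditions. 100 = complete control.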

[3] = tested on: pigweed; test: Test B pre-/postemergence herbicide test; type: in vivo, Amaranthus retroflexus; settings: for Pigweed plant response rating: postemergence, visual rating, scale 0 (no effect) to 100 (complete control)
Summary of the method: (§2)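 Test chemicals in a non-phytotoxic solvent mixture with surfactant were applied preemergence to seeded species and postemergence to plants 2-18 cm tall (1- to 4-leaf stage); rice and barnyardgrass were also tested in a flooded paddy at the 2-leaf stage. Visual rating versus controls after 13-15 days in greenhouse, scale 0 (no effect) to 100 (complete control).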

[4] = tested on: ducksalad; test: Test C flooded paddy test; type: in vivo, Heteranthera limosa
[5] = tested on: giant foxtail; test: Test B pre-/postemergence herbicide test; type: in vivo, Setaria faberi; settings: for Foxtail, Giant plant response rating: postemergence, visual rating, scale 0 (no effect) to 100 (complete control)
Summary of the method: as §2

[6] = tested on: rice; test: Test B pre-/postemergence herbicide test; type: in vivo, Oryza sativa; settings: preemergence
Summary of the method: as §2

[7] = tested on: corn; test: Test B pre-/postemergence herbicide test; type: in vivo, Zea mays; settings: for Corn plant response rating: postemergence, visual rating, scale 0 (no effect) to 100 (complete control)
Summary of the method: as §2

[8] = tested on: small flower umbrella sedge; test: Test B flooded paddy test; type: in vivo, Cyperus difformis; settings: 1000 g ai/ha, visual rating, scale 0 to 100 (0 no effect, 100 complete control), 13 to 15 days
Summary of the method: as §1

[9] = tested on: morningglory; test: Test B pre-/postemergence herbicide test; type: in vivo, Ipomoea coccinea; settings: for Morningglory plant response rating: postemergence, visual rating, scale 0 (no effect) to 100 (complete control)
Summary of the method: (§3)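 Plants compared with untreated controls 13–15 days post-treatment and given a visual 0–100 injury score. Applications: preemergence to seeds; postemergence at 1- to 4-leaf (2–18 cm); paddy species flooded, 2-leaf stage. Vehicle non-phytotoxic, surfactant included.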

[10] = tested on: ducksalad; test: Test B flooded paddy test; type: in vivo, Heteranthera limosa; settings: 1000 g ai/ha, visual rating, scale 0 to 100 (0 no effect, 100 complete control), 13 to 15 days
Summary of the method: as §1

[11] = tested on: barnyardgrass; test: Test B pre-/postemergence herbicide test; type: in vivo, Echinochloa crus-galli; settings: for Barnyardgrass plant response rating: postemergence, visual rating, scale 0 (no effect) to 100 (complete control)
Summary of the method: as §3

[12] = tested on: blackgrass; test: Test B postemergence herbicide test; type: in vivo, Alopecurus myosuroides; settings: postemergence, visual rating, scale 0 (no effect) to 100 (complete control)
Summary of the method: as §1

[13] = tested on: barnyardgrass; test: Test B flooded paddy test; type: in vivo, Echinochloa crus-galli; settings: 1000 g ai/ha, visual rating, scale 0 to 100 (0 no effect, 100 complete control), 13 to 15 days
Summary of the method: as §1

[14] = tested on: rice; test: Test C flooded paddy test; type: in vivo, Oryza sativa
Summary of the method: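 Injury scored visually against controls on a 0 (no effect) to 100 (complete control) scale, 12 to 14 days after treatment in greenhouse. Flooded paddy plants treated at 2-leaf stage; postemergence plants at 1- to 4-leaf stage, 2 to 18 cm tall.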

[15] = tested on: large crabgrass; test: Test B pre-/postemergence herbicide test; type: in vivo, Digitaria sanguinalis; settings: for Crabgrass, Large plant response rating: postemergence, visual rating, scale 0 (no effect) to 100 (complete control)
Summary of the method: as §2

[16] = tested on: cocklebur; test: Test B pre-/postemergence herbicide test; type: in vivo, Xanthium strumarium; settings: for Cocklebur plant response rating: postemergence, visual rating, scale 0 (no effect) to 100 (complete control)
Summary of the method: as §3

[17] = tested on: Surinam grass; test: Test B pre-/postemergence herbicide test; type: in vivo, Urochloa decumbens; settings: for Surinam Grass plant response rating: postemergence, visual rating, scale 0 (no effect) to 100 (complete control)
Summary of the method: as §2

[18] = tested on: smallflower umbrella sedge; test: Test C flooded paddy test; type: in vivo, Cyperus difformis
[19] = tested on: velvetleaf; test: Test B pre-/postemergence herbicide test; type: in vivo, Abutilon theophrasti; settings: for Velvetleaf plant response rating: postemergence, visual rating, scale 0 (no effect) to 100 (complete control)
Summary of the method: as §2

[20] = tested on: lambsquarters; test: Test B pre-/postemergence herbicide test; type: in vivo, Chenopodium album; settings: for Lambsquarters plant response rating: postemergence, visual rating, scale 0 (no effect) to 100 (complete control)
Summary of the method: as §2

[21] = tested on: rice; test: Test B flooded paddy test; type: in vivo, Oryza sativa; settings: 1000 g ai/ha, visual rating, scale 0 to 100 (0 no effect, 100 complete control), 13 to 15 days
Summary of the method: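 Paddy species grown to the 2-leaf stage under flooding; blackgrass sprayed postemergence at 2–18 cm (1- to 4-leaf stage). Plants kept in a greenhouse for 13 to 15 days, then visually rated against controls on 0 (no effect) to 100 (complete control).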

[22] = tested on: wheat; test: Test B postemergence herbicide test; type: in vivo, Triticum aestivum; parameters: key to Wheat plant response rating: 0 = no effect, 100 = complete control; settings: postemergence, visual rating, scale 0 (no effect) to 100 (complete control)
Summary of the method: as §1

[23] = 62 g ai/ha, scale 0 to 100 (0 no effect, 100 complete control)
[24] = 250 g ai/ha, scale of 0 to 100, 0 is no effect, 100 is complete control
[25] = 500 g ai/ha, visual rating after 12 to 14 days, scale 0 to 100 (0 no effect, 100 complete control)
[26] = 125 g ai/ha, 0 = no effect, 100 = complete control, preemergence
[27] = 500 g ai/ha, visual rating 0-100, 0 no effect, 100 complete control, preemergence
[28] = 125 g ai/ha, scale 0 to 100 (0 no effect, 100 complete control)

In the case of CCc1nn(C(C)(C)C)cc1C(=O)Nc1cccc(C(C)=O)c1 [Compound 187], the “Oat, Wild plant response rating” value ([1]; 125 g ai/ha) is reported as 10, the “Oat, Wild plant response rating” value ([1]; 500 g ai/ha) is reported as 20 and the “Barnyardgrass plant response rating” value [2, 23] is reported as 0. The “Barnyardgrass plant response rating” value ([2]; 125 g ai/ha, scale of 0 to 100, 0 is no effect, 100 is complete control) was 25, the “Barnyardgrass plant response rating” value [2, 24] was 60 and the “Plant response rating, Barnyardgrass” value [2, 25] was 75. For the same molecule, the “Pigweed plant response rating (0 to 100 scale)” value [3, 26] was 20, the “Plant response rating, Pigweed” value [3, 27] was 60 and the “Pigweed plant response rating” value ([3]; 125 g ai/ha) was 20. The “Pigweed plant response rating” value ([3]; 500 g ai/ha) was 20, the “Ducksalad plant response rating” value [4, 23] was 20 and the “Ducksalad plant response rating” value [4, 28] was 40. The “Ducksalad plant response rating” value [4, 24] was 85, the “Plant response rating, Ducksalad” value [4, 25] was 90 and the “Foxtail, Giant plant response rating (0 to 100 scale)” value [5, 26] was 10. The “Plant response rating, Foxtail, Giant” value [5, 27] was 70, the “Foxtail, Giant plant response rating” value ([5]; 125 g ai/ha) was 10 and the “Foxtail, Giant plant response rating” value ([5]; 500 g ai/ha) was 10. The “Rice plant response rating (0 to 100 scale)” value ([6]; 125 g ai/ha, 0 = no effect, 100 = complete control) was 30, the “Plant response rating, Rice” value ([6]; 500 g ai/ha, visual rating 0-100, 0 no effect, 100 complete control) was 80 and the “Corn plant response rating (0 to 100 scale)” value [7, 26] was 20. The “Plant response rating, Corn” value [7, 27] was 60, the “Corn plant response rating” value ([7]; 125 g ai/ha) was 0 and the “Corn plant response rating” value ([7]; 500 g ai/ha) was 20. The “Sedge, Umbrella plant response rating” value [8] was 80, the “Morningglory plant response rating (0 to 100 scale)” value [9, 26] was 20 and the “Plant response rating, Morningglory” value [9, 27] was 30. For the same molecule, the “Morningglory plant response rating” value ([9]; 125 g ai/ha) was 20, the “Morningglory plant response rating” value ([9]; 500 g ai/ha) was 20 and the “Ducksalad plant response rating” value [10] was 90. The “Barnyardgrass plant response rating (0 to 100 scale)” value [11, 26] was 70, the “Plant response rating, Barnyardgrass” value [11, 27] was 90 and the “Barnyardgrass plant response rating” value ([11]; 125 g ai/ha) was 10. The “Barnyardgrass plant response rating” value ([11]; 500 g ai/ha) was 10, the “Blackgrass plant response rating” value ([12]; 125 g ai/ha) was 0 and the “Blackgrass plant response rating” value ([12]; 500 g ai/ha) was 0. The “Barnyardgrass plant response rating” value [13] was 60, the “Rice plant response rating” value [14, 23] was 15 and the “Rice plant response rating” value [14, 28] was 30. For the same molecule, the “Rice plant response rating” value [14, 24] was 50, the “Plant response rating, Rice” value [14, 25] was 65 and the “Crabgrass, Large plant response rating (0 to 100 scale)” value [15, 26] was 70. For the same molecule, the “Plant response rating, Crabgrass, Large” value [15, 27] was 100, the “Crabgrass, Large plant response rating” value ([15]; 125 g ai/ha) was 10 and the “Crabgrass, Large plant response rating” value ([15]; 500 g ai/ha) was 10. For the same molecule, the “Cocklebur plant response rating (0 to 100 scale)” value [16, 26] was 0, the “Plant response rating, Cocklebur” value [16, 27] was 0 and the “Cocklebur plant response rating” value ([16]; 125 g ai/ha) was 30. For the same molecule, the “Cocklebur plant response rating” value ([16]; 500 g ai/ha) was 70, the “Surinam Grass plant response rating (0 to 100 scale)” value [17, 26] was 30 and the “Plant response rating, Surinam Grass” value [17, 27] was 70. The “Surinam Grass plant response rating” value ([17]; 125 g ai/ha) was 10, the “Surinam Grass plant response rating” value ([17]; 500 g ai/ha) was 10 and the “Sedge, Umbrella plant response rating” value [18, 23] was 20. For the same molecule, the “Sedge, Umbrella plant response rating” value [18, 28] was 65, the “Sedge, Umbrella plant response rating” value [18, 24] was 80 and the “Plant response rating, Sedge, Umbrella” value [18, 25] was 85. The “Velvetleaf plant response rating (0 to 100 scale)” value [19, 26] was 10, the “Plant response rating, Velvetleaf” value [19, 27] was 20 and the “Velvetleaf plant response rating” value ([19]; 125 g ai/ha) was 0. For the same molecule, the “Velvetleaf plant response rating” value ([19]; 500 g ai/ha) was 10, the “Lambsquarters plant response rating (0 to 100 scale)” value [20, 26] was 20 and the “Plant response rating, Lambsquarters” value [20, 27] was 40. For the same molecule, the “Lambsquarters plant response rating” value ([20]; 125 g ai/ha) was 0, the “Lambsquarters plant response rating” value ([20]; 500 g ai/ha) was 0 and the “Rice plant response rating” value [21] was 30. The “Wheat plant response rating” value ([22]; 125 g ai/ha) was 0 and the “Wheat plant response rating” value ([22]; 500 g ai/ha) was 0.
